Like-named read-outs stand apart in the source and are kept apart here.
Columns and labels:
HCV genotype 6a replicon = assay: HCV subgenomic stable replicon cell culture assay (luciferase), genotype 6a; assay type: cell-based; conditions: Hepatitis C virus; bound stated in description, plasma not stated; read-out: EC50 value against HCV genotype 6a
[1] = tested on: HCV stable subgenomic replicons containing NS3 genes from GT 1a, 1b, 2a, 3a, 4a, or 6a; assay: HCV stable subgenomic replicon panel, summary statements over several genotypes; assay type: cell-based; conditions: Hepatitis C virus
[2] = tested on: GT1b subgenomic replicon NS3 variants; assay: Resistant colony selection and variant susceptibility, GT1b subgenomic replicon cells; assay type: cell-based, Hepatitis C virus; conditions: A156V in GT1b
From the text: (§1) The inhibitory effects of the compounds of the invention on HCV replication can also be determined by measuring activity of the luciferase reporter gene encoded by subgenomic replicons not containing the Neo selectable marker, that are transiently expressed in cells. The adaptive mutations encoded by the 1a-H77, 1b-N and 1b-Con-1 replicons are the same as listed above. The 1b-Con1 replicon used for these transient assays contains the NS2-NS5B coding region rather than the NS3-5B coding region. These replicons may encode target NS3 genes as described for stable subgenomic replicons or they may encode amino acid variants that confer varying degrees of susceptibility to the drug. For example, variants could include R155K, D168E or D168V in a genotype 1a NS3 gene; R155K or D168V in a genotype 1b NS3 gene; S138T, A166T or Q168R in a genotype 3a NS3 gene. For example, cells can be transfected with the replicon by electroporation and seeded into 96 well plates at a density of 5000 cells per well in 100 μl DMEM containing 5% FBS. […] Luciferin solution (100 μl, Promega) can be added to each well, and luciferase activity can be measured with a luminometer. The percent inhibition of HCV RNA replication can be calculated for each compound concentration and the EC50 value can be calculated using nonlinear regression curve fitting to the 4-parameter logistic equation and GraphPad Prism 4 software. […]

[3] = tested on: replicon containing GT3a NS3 protease, variants; assay: Resistant colony selection and variant susceptibility, replicon containing GT3a NS3 protease; assay type: cell-based, Hepatitis C virus
From the text: The inhibitory effects of the compounds of the invention on HCV replication can also be determined by measuring activity of the luciferase reporter gene encoded by subgenomic replicons not containing the Neo selectable marker, that are transiently expressed in cells. The adaptive mutations encoded by the 1a-H77, 1b-N and 1b-Con-1 replicons are the same as listed above. The 1b-Con1 replicon used for these transient assays contains the NS2-NS5B coding region rather than the NS3-5B coding region. These replicons may encode target NS3 genes as described for stable subgenomic replicons or they may encode amino acid variants that confer varying degrees of susceptibility to the drug. For example, variants could include R155K, D168E or D168V in a genotype 1a NS3 gene; R155K or D168V in a genotype 1b NS3 gene; S138T, A166T or Q168R in a genotype 3a NS3 gene. For example, cells can be transfected with the replicon by electroporation and seeded into 96 well plates at a density of 5000 cells per well in 100 μl DMEM containing 5% FBS. Compounds diluted in dimethyl sulfoxide (DMSO) to generate a 200× stock in a series of eight half-log dilutions can then be further diluted 100-fold in the medium containing 5% FBS and added to the cell culture plates already containing 100 μl of DMEM with 5% FBS. After an incubation period of either 3 or 4 days, 30 μl of Passive Lysis buffer (Promega) can be added to each well, with incubation for 15 minutes with rocking to lyse the cells. Luciferin solution (100 μl, Promega) can be added to each well, and luciferase activity can be measured with a luminometer. The percent inhibition of HCV RNA replication can be calculated for each compound concentration and the EC50 value can be calculated using nonlinear regression curve fitting to the 4-parameter logistic equation and GraphPad Prism 4 software.
Resistant colony selection studies in GT1a and 1b subgenomic replicon cells identified A156T in GT1a and A156V in GT1b as the most frequent variants, which conferred 1400- and 1800-fold reduced susceptibility to Compound 1, respectively. […]

[4] = tested on: GT1a subgenomic replicon NS3 variants; assay: Resistant colony selection and variant susceptibility, GT1a subgenomic replicon cells; assay type: cell-based, Hepatitis C virus; conditions: A156T in GT1a
From the text: as §1

`CC(C)(C)[C@@H]1NC(=O)O[C@@H]2CCC[C@H]2OC/C=C/C(F)(F)c2nc3ccccc3nc2O[C@@H]2C[C@@H](C(=O)N[C@]3(C(=O)NS(=O)(=O)C4(C)CC4)C[C@H]3C(F)F)N(C2)C1=O` [Compound 1] was tested, and the EC50 (HCV genotype 6a replicon) was under 1 nM, the EC50 ([1]; bound stated for all six genotypes, read-out: EC50 value against HCV genotype 1a, 1b, 2a, 3a, 4a, and 6a) was under 3 nM and the EC50 ([1]; genotype 1a and 1b, 0% Human Plasma, 5% FBS, read-out: mean EC50 values, range over genotype 1a and 1b replicons) was 0.85 to 0.94 nM. The EC50 ([1]; genotype 1a and 1b, 40% Human Plasma, 5% FBS, read-out: mean EC50 values, range over genotype 1a and 1b replicons) was 5 to 10 nM, the EC50 ([1]; genotype 2a, 3a, 4a, 6a, 0% Human Plasma, 5% FBS, read-out: mean EC50 values, range over genotype 2a, 3a, 4a, and 6a replicons) was 0.86 to 2.8 nM and the “fold reduced susceptibility conferred by variant” value [2] was 1800 fold. The “fold loss in susceptibility conferred by variant” value ([3]; A156G alone) was 1500 fold, the “fold loss in susceptibility conferred by variant” value ([3]; Q168R co-selected with Y56H) was 1100 fold and the resistant colonies selected ([3]; concentrations ≧100-fold over its EC50 value) was “very few colonies”. The “fold reduced susceptibility conferred by variant” value [4] was 1400 fold.

— US20150119400A1, “METHODS FOR TREATING HCV” (priority 2013, published 2015)
